According to patent publication US9174988B2, “Small molecule inhibitors of hepatitis C virus” (TRUSTEES OF BOSTON UNIVERSITY, priority 2009, dated 2015):
Where two headings read alike, the source gives them in different places.

What was measured:
HCV 2a J6/JFH-1 = assay: HCV infectivity assay by real-time RT-PCR of HCV RNA (EC50 at T1 and T2); format: cell-based, hepatitis C virus; conditions: for EC50: Hepatitis C virus; for EC50's (stage not specified): HCV 2a strain J6/JFH-1 in hepatoma cells
Experimental: In this assay HCV infectivity is measured using real-time RT-PCR to monitor changes in expression of HCV 2a J6/JFH-1 RNA. Cells are incubated with test compound in the presence of HCV, followed by isolation of RNA, conversion to cDNA, and Taqman-based QPCR. As designed, a compound that inhibits HCV infectivity will reduce HCV RNA expression, leading to decreased production of the PCR amplicon, thereby reducing fluorescence, and increasing Ct.
Huh-7.5 cells were plated the day before the assay. After allowing the cells to adhere overnight, test compound was prepared in HCV supernatant by making 1:10 serial dilutions from 100 micromolar down to 0.001 micromolar. Doses of test compound in virus were added to cells and incubated for 24 hours. The next day, cell culture media was removed from each well and replaced with same dilutions of compound in complete media were added to cells and incubated for another 48 hours for T1 timepoint. Then cells were lysed and RNA was isolated using the RNeasy kit (QIAGEN, Valencia, Calif.). Supernatant from T1 was transferred to fresh naïve cells and incubated for 24 hours. Culture media were removed from cells and replaced with complete media and incubated for 48 hours for T2 timepoint. Cells for T2 timepoint were lysed and RNA was isolated using the RNeasy kit (QIAGEN, Valencia, Calif.). DNA was generated using the Taqman reverse transcription kit (Applied Biosystems, Foster City, Calif.). Quantitative real-time polymerase chain reaction (PCR) was performed in triplicate using LightCycler RNA Amplification Kit HybProbe master mix (Roche) with Taqman MGB Probe 6FAM-[…]-MGBNFQ on a model LightCycler480 real time PCR system (Roche). Data are expressed as the mean fold change plus or minus SE of 3 replicates normalized to 100 ug total RNA. Primers used were forward […] and reverse […]. The range of activity was normalized based on measurement of total RNA. Compounds were tested in triplicate in a 6-point 1:10 dilution series starting at a nominal test concentration of 100 micromolar.
The compounds were then studied in the same Huh7-5 cells infected with HCV 2a strain J6/JFH-1 (Kota, et al., ASSAY Drug Dev. Tech (2009) 8: 96). Huh-7.5 hepatoma cells were electroporated with RNA from HCV and the 72-hour supernatant was used as a source of infectious virus. This supernatant was combined with compounds identified as inhibitors of core dimerization. Two stages of infection were studied: early stage (T1), corresponding to the initial 72-hour culture of naïve cells infected in the presence of the inhibitor, and late stage (T2), corresponding to the second 72-hour passage through naïve cells. HCV RNA detected in T1 results from actual viral infection and replication. HCV RNA detected in T2 results from infectious virus secreted in T1 and replicated in freshly infected naïve cells. Real-time reverse-transcriptase PCR was done on RNA extracted and purified from the cells treated with increasing concentrations (0.001-100 μM) of each of the compounds. […] For comparative purposes, data for BILN2061a known inhibitor of the NS3/NS4A protease (Lamarre, et al., Nature (2003) 426: 186), is included.

[1] = target: T1, core106 (HCV core protein domain) dimerization (Hepatitis C virus genotype 1a, UniProt P27958); assay: Core106 ALPHA screen (AlphaScreen) core dimerization assay; format: binding; conditions: for inhibition of core dimerization (in words): level of activity in words, partly relative to 16
T1 construct: a core106 protein domain was tagged with either Glutathione-S-transferase (GST) tag or a Flag peptide tag
Experimental: FIG. 16b is a dose-response analysis of compound 1 (SL201). Core106 ALPHA screen assay was used for the dose-response analyses. The compound was dosed from 0 to 100 μM. The IC50 was calculated using a non-linear regression ‘Log (inhibitor) versus response’ with four points for each concentration.
Core106 ALPHA screen assay was used for the dose response analyses. The compounds were dosed from 0 to 100 μM. The IC50 were calculated using a nonlinear regression “Log (inhibitor) vs. response” with 4 points for each concentration. The difference in IC50 for compound 1 (SL201) is due to the using two different lots of SL201 and the values are within experimental error.
This assay employed the AlphaScreen® technology, a secondary Amplified Luminescent Proximity Homogeneous Assay as described in Kota, et al, J. Gen Virol. (2009) 90: 1319-1328, content of which is herein incorporated by reference. AlphaScreen is based on the use of photoactive donor and acceptor beads that recognize specific tags on interacting proteins (Peppard, 2003). Core106 dimerization was confirmed using AlphaScreen technology in which a core106 protein domain was tagged with either Glutathione-S-transferase (GST) tag or a Flag peptide tag. The untagged core106 protein domain was used as a model competitor in the assay. The proteins were diluted to working concentrations in ‘protein buffer’ (100 mM HEPES pH 7.5, 1 mM EDTA, 5 mM DTT, 0.1% CHAPS, 10% glycerol). The donor and acceptor beads were diluted to working concentrations in ‘bead buffer’ (20 mM HEPES pH7.5, 125 mM NaCl, 0.1% BSA, 0.1% CHAPS). GST-tagged core106 (150 nM) was incubated with 150 nM of Flag-tagged core106 for 1 h at room temperature. Anti-Flag acceptor beads (Perkin Elmer Lifesciences) were added to the proteins at a final concentration of 20 μg/ml and incubated for 1 h at room temperature. Then, Glutathione donor beads (Perkin Elmer Lifesciences) were added to the proteins at a final concentration of 20 μg/ml and incubated for 1 h. The assays were executed in a white 384 well Packard opti plate (Perkin Elmer Lifesciences) and were read on Perkin Elmer Envision.
Uninhibited or 0% inhibition control is defined as wells containing only GST-core106 and Flag-core106. 100% inhibition control is defined as wells containing GST-core106 and Flag-core106 with core106 as an inhibitor. Test compound is wherein the test compound is analyzed.
Compounds were tested in triplicate in a 10-point series starting at a nominal test concentration of 50 nM. For each test compound, percent inhibition was plotted against compound concentration. A four parameter equation describing a sigmoidal dose-response curve was plotted using GraphPad Prism® (GraphPad Software Inc). The reported IC50 values were generated from fitted curves by solving for the X-intercept value at the 50% inhibition level of the Y-intercept value.

Huh-7.5 cells = assay: XTT cytotoxicity assay (CC50); format: cell-based; conditions: human, 72 h
From the text: (§1) This assay utilized the compound XTT (2,3-bis[2-methoxy-4-nitro-5-sulfophenyl]-2H-tetrazolium-5-carboxyanilide inner salt) with addition of an electron coupling agent phenazine methosulfate (PMS) to measure mitochondrial dehydrogenases activity in living cells, e.g., Huh-7.5 cells. Dehydrogenases in mitochondria of living cells cleave the tetrazolium ring of XTT changing the color of the solution from clear to orange. As designed, compounds that reduce cell viability will reduce activity of the mitochondrial dehydrogenases, and leave a decreased orange color in solution.
(§2) The Huh-7.5 cell line was routinely cultured in 15-cm dishes at 37 degrees C. and 95% relative humidity (RH). The growth media consisted of DMEM supplemented with 10% v/v certified fetal bovine serum, 4 mM L-glutamine, 1 mM sodium pyruvate, 1× antibiotic mix (penicillin, streptomycin, and glutamine), and 1× non-essential amino acids.
(§3) Prior to the start of the assay 8000 cells in 100 microliter volume of colorless growth media were dispensed into each well of 96-well tissue culture-treated microtiter plates and incubated overnight at 37 degrees C. (5% CO2, 95% RH) to allow cells to adhere to the plate. The next day, 100 microliter of test compound in DMSO (1.25% final DMSO concentration) and DMSO only were added to wells. Wells with only test compound in media without cells were used to normalize the data (to account for the color a test compound may have). Next, the plates were incubated for 72 hours at 37 degrees C. (5% CO2, 95% RH). Solution of XTT-PMS was prepared in 1×PBS and added to the cells in 50 microliter volume to each well and incubated for 4 hours at 37 degrees C. (5% CO2, 95% RH). After equilibrating the plates to room temperature for 10 minutes, optical density at 450 nm and […] was measured on Biotek plate reader.
(§4) The percent inhibition for each compound was calculated as follows: % Inhibition=((DMSO Control−Test compound)/DMSO Control)*100, wherein Test compound is defined as wells containing test compound.
(§5) Compounds were tested in triplicate in a 7-point 1:3 dilution series starting at a nominal test concentration of 320 micromolar. For each test compound, percent inhibition was plotted against compound concentration. A four parameter equation describing a sigmoidal dose-response curve was then fitted with adjustable baseline using MicroSoft Excel software. The reported CC50 values were generated from fitted curves by solving for the X-intercept value at the 50% inhibition level of the Y-intercept value.

[2] = XTT cytotoxicity assay (CC50); format: cell-based; conditions: human, CC50
From the text: as §1, §2, §3, §4, §5

[3] = Huh7.5, read-out: HCV2a J6/JFH-1 T1-EC50
[4] = Huh7.5, read-out: HCV2a J6/JFH-1 T2-EC50
[5] = AlphaScreen, read-out: IC50 for inhibition of core dimerization
[6] = inhibition of core dimerization, Table 3, read-out: IC50
[7] = inhibition of core dimerization, see FIG. 17, Table 2, read-out: IC50

T1 sequence (P27958 2-106): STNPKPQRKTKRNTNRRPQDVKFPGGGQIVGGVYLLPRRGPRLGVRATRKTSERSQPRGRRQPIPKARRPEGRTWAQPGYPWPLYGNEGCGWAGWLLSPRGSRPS

| Structure (SMILES) | EC50 (HCV 2a J6/JFH-1; [3]) | EC50 (HCV 2a J6/JFH-1; [4]) | EC50 (HCV 2a J6/JFH-1; read-out: HCV 2A T1 - EC50) | EC50 (HCV 2a J6/JFH-1; read-out: HCV 2A T2 - EC50) | IC50 [1, 5] | IC50 [1, 6] | IC50 [1, 7] | CC50 (Huh-7.5 cells) | CC50 at 72 h [2] | inhibition of core dimerization (in words) [1] | EC50's (stage not specified) (HCV 2a J6/JFH-1) |
| --- | --- | --- | --- | --- | --- | --- | --- | --- | --- | --- | --- |
| COC(=O)C1=C(C(=O)OC)C2N(C)c3ccc(OC)cc3[C@@]23C[C@@H](C(=O)OC)N(C(=O)CC(C)C)C3=N1 (single isomer, unassigned) [Compound 1] | 14.8 µM | 22.2 µM | 8.8 µM | 8.1 µM | 5.7 µM | 9.3 µM | 9.3 µM | > 320 µM | > 320 µM |  |  |
| COC(=O)C1=C(C(=O)OC)C2N(CCCCCn3cc(-c4ccc(OC)cc4C)nn3)c3ccccc3[C@@]23CCC(=O)N(Cc2ccccc2)C3=N1 (some centres unmarked) [Compound 27] |  |  | 1.4 µM | 1.1 µM | 0.092 µM |  |  |  | > 100 µM | sub-micromolar |  |
| COc1ccc2c(O[C@@H]3C[C@H]4C(=O)N[C@]5(C(=O)O)C[C@H]5/C=C\CCCCC[C@H](NC(=O)OC5CCCC5)C(=O)N4C3)cc(-c3csc(NC(C)C)n3)nc2c1 [BILN2061, reference compound] | 0.072 µM | 0.071 µM |  |  |  |  |  |  | 5.3 µM |  |  |
| CC#CCN1c2ccccc2[C@]23CCC(=O)N(CCOC)C2=NC(C(=O)OC)=C(C(=O)OC)C13 (mixture of isomers) [Compound 15] | 4.9 µM | 0.7 µM | 4.9 µM | 0.7 µM |  | 2 µM | 2 µM | > 320 µM | > 320 µM |  | single digit |
| COC(=O)C1=C(C(=O)OC)C(NCCCN2c3ccccc3[C@]34CCC(=O)N(Cc5ccccc5)C3=NC(C(=O)OC)=C(C(=O)OC)C24)[C@@]2(c3ccccc3)CCC(=O)N(Cc3ccccc3)C2=N1 (some centres unmarked) [SL235] |  |  | 0.088 µM | 0.735 µM |  | 2.9 µM |  |  | > 36 µM |  |  |
| COC(=O)[C@@H]1C[C@@]23C(=NC(c4ccc([N+](=O)[O-])cc4)=C(C(F)(F)F)C2N(C)c2ccccc23)N1C(C)=O (some centres unmarked) [Compound 22a] |  |  | 1.3 µM | 0.9 µM | 5.6 µM |  |  |  | 310 µM |  |  |
| COC(=O)C1=C(C(=O)OC)C2N(CCCCCn3cc(CNC(C)=O)nn3)c3ccccc3[C@@]23CCC(=O)N(Cc2ccccc2)C3=N1 (some centres unmarked) [Compound 28] |  |  | 26.2 µM | 56.2 µM |  | 0.341 µM |  |  | 150 µM | sub-micromolar |  |
| C=CCN1c2ccccc2[C@]23CCC(=O)N(Cc4ccccc4)C2=NC(C(=O)OC)=C(C(=O)OC)C13 (mixture of isomers) [Compound 16] | 2.3 µM | 3.2 µM | 2.3 µM | 3.2 µM | 1.4 µM | 1.4 µM | 1.4 µM | 127 µM | 127 µM |  | single digit |
| C=CCN1c2ccccc2[C@]23CCC(=O)N(Cc4cc(OC)c(OC)c(OC)c4)C2=NC(C(=O)OC)=C(C(=O)OC)C13 (mixture of isomers) [Compound 17] | 3.8 µM | 3 µM | 3.8 µM | 3 µM |  | 2 µM | 2 µM |  | 5.3 µM |  |  |
